These results are taken from patent publication US20050137194A1, “Combination of selected opioids with other active compounds for treatment of urinary incontinence” (Gruenenthal GmbH, priority 2002, published 2005).

Where two headings read alike, the source gives them in different places. Marks after values point to notes of the source that are not given here.

The subject of test [1] is naive female rats. As to the kind of experiment: Cystometry test system on narcotized naive rats (suppression of spontaneous bladder contractions). The class given is in vivo, rat. The settings on record: i.v. cumulative; for minimal effective dose: Rattus norvegicus, iv, 10 min, read-out: Lowest dose at which for the first time contractions were absent over a period of 10 minutes. How it is done:
The cystometric investigation on naive female rats was carried out in accordance with the method of Kimura et al. (Kimura et al., 1996, Int. J. Urol. 3: 218-227). The abdomen of narcotized, ventilated rats is opened up and the ureter is ligated. The urine is drained from the kidneys. A catheter is inserted into the bladder and fixed. […] After stable starting values have been reached, the test substance is administered i.v. in a cumulative manner. Influencing of the bladder function manifests itself via suppression of the spontaneous contractions. In this context, the absence of contractions over a period of 10 min is a parameter for the suppression.
With all the substances listed here, a suppression of the spontaneous contractions was measurable in the rats, table 3 showing the mean of the lowest dose of at least 2 experiments at which for the first time contractions were absent over a period of 10 minutes.
With all the substances listed here, a suppression of the spontaneous contractions was measurable in the rats, table 4 showing the mean of the lowest dose of at least 2 experiments at which for the first time contractions were absent over a period of 10 minutes.
With all the substances listed here, a suppression of the spontaneous contractions was measurable in the rats, table 5 showing the mean of the lowest dose of at least 2 experiments at which for the first time contractions were absent over a period of 10 minutes. […]

For test [2], the system named is naive, female Sprague-Dawley rats. As to the kind of experiment: Cystometry test system on conscious naive rats. The settings on record: for action on bladder regulation (in words): conscious naive rats, i.v.
Description: Three days after implantation of bladder and venous catheters, the animals were investigated in the freely mobile, conscious state. The bladder catheter was connected to a pressure transducer and an injection pump. The animals were placed in metabolism cages which allowed measurement of the volume of urine. Physiological saline solution was infused into the emptied bladder (10 ml/h) and the bladder pressure and micturition volume were recorded continuously. After a stabilization phase, a 20 minute phase, which was characterized by normal, reproducible micturition cycles, was recorded. The following parameters, inter alia, were determined: • threshold pressure (TP, bladder pressure immediately before micturition), • bladder capacity (BC, residual volume after preceding micturition plus volume of the infused solution during the filling phase), • intercontraction interval (ICI, the interval of time between micturitions).
Test [3] deals with female Sprague-Dawley rats. The test can be described thus: Cystometry test system on conscious damaged rats (oxyhaemoglobin-induced bladder hyperactivity, urgency incontinence model).
Excerpt: This model simulates the urgency incontinence in an animal model; the oxyhaemoglobin (OxyHb) employed induces a bladder hyperactivity.
Three days after implantation of bladder and venous catheters, the animals were investigated in the freely mobile, conscious state. The bladder catheter was connected to a pressure transducer and an injection pump. The animals were placed in metabolism cages which allowed measurement of the volume of urine. Physiological saline solution was infused into the emptied bladder (10 ml/h) and the bladder pressure and micturition volume were recorded continuously. After a stabilization phase, a 20 minute phase, which was characterized by normal, reproducible micturition cycles, was recorded. The following parameters, inter alia, were determined: • threshold pressure (TP, bladder pressure immediately before micturition), • bladder capacity (BC, residual volume after preceding micturition plus volume of the infused solution during the filling phase), • intercontraction interval (ICI, the interval of time between micturitions) • micturition pressure (MP, maximum bladder pressure during a micturition).
After three reproducible micturition cycles had been recorded as the pre-value, 2.5×10^−4 M oxyhemoglobin in the vehicle=0.9% NaCl were infused into the bladder. The action on the cystometric parameters was recorded for about 20 minutes. At the action maximum the mean of 3 micturition cycles was determined and shown as a percentage change compared with the pre-value (table 8).
Where [4] appears, read: mean of at least 3 independent experiments.
The mark [5] stands for this setting: 1.0 mg/kg iv, action maximum, mean of 3 micturition cycles.
Where [6] appears, read: after OxyHb 2.5 × 10^−4 M, n = 5, average ± standard deviation.
[7] abbreviates: pre-value before OxyHb 2.5 × 10^−4 M, n = 5, average ± standard deviation.

Regarding `CN(C)C[C@H]1CCCC[C@@H]1c1cccc(O)c1.Cl` [Compound 19, (+)-(1S,2S)-3-(2-dimethylaminomethyl-cyclohexyl)-phenol, hydrochloride], the minimal effective dose in test [1] (mean of at least 2 experiments) was determined as 0.1 mg/kg.

`CC[C@@](O)(c1cccc(OC)c1)[C@@H](C)CN(C)C.Cl` [Compound 21, (−)-(2S,3S)-1-dimethylamino-3-(3-methoxy-phenyl)-2-methyl-pentan-3-ol, hydrochloride]: the “action on bladder regulation (in words)” value in test [2] was “does not contribute to the action”.

As to `CCOC(=O)C1(c2ccccc2)CCC=CC1N(C)C` (stereo not drawn) [tilidine, reference compound], in test [1] (setting [4]), the minimal effective dose turned out to be 0.5 mg/kg.

Consider `CC[C@](O)(c1cccc(SC)c1)[C@H](C)CN(C)C.Cl` (racemic) [Compound 5, (2RS,3RS)-1-dimethylamino-2-methyl-3-(3-methylsulfanyl-phenyl)-pentan-3-ol, hydrochloride], for which the minimal effective dose in test [1] (mean of at least 2 experiments) was determined as 2.3 mg/kg.

In the case of `COc1cccc([C@@]2(O)C[C@@H](O)CC[C@@H]2CN(C)C)c1.Cl` (racemic) [Compound 27, (1RS,3SR,6RS)-6-dimethylaminomethyl-1-(3-methoxy-phenyl)-cyclohexane-1,3-diol, hydrochloride], in test [1] (mean of at least 2 experiments), the minimal effective dose came out at 115 mg/kg.

For `CN(C)C[C@H]1CC[C@@H](C(F)(F)F)C[C@]1(O)c1cccc(O)c1.Cl` (racemic) [Compound 29, (1RS,2RS,5RS)-3-(2-dimethylaminomethyl-1-hydroxy-5-trifluoromethyl-cyclohexyl)-phenol, hydrochloride], in test [1] (mean of at least 2 experiments), the minimal effective dose is 23.3 mg/kg.

In the case of `C[C@H](CN(C)C)[C@@](C)(O)c1cccc(O)c1.Cl` [Compound 9, (+)-(1R,2R)-3-(3-dimethylamino-1-hydroxy-1,2-dimethyl-propyl)-phenol, hydrochloride], in test [2] (0.5 mg/kg iv), the “BC bladder capacity, change relative to the pre-value” is “+50% **”; the “ICI intercontraction interval, change relative to the pre-value” is “+21% *”; the “TP threshold pressure, change relative to the pre-value” is “+56% **”.

On to `COc1cccc([C@@]2(O)C[C@H](O)CC[C@@H]2CN(C)C)c1.Cl` [Compound 25, (+)-(1R,3R,6R)-6-dimethylaminomethyl-1-(3-methoxy-phenyl)-cyclohexane-1,3-diol, hydrochloride], for which, in test [2] (1.5 mg/kg iv), the “BC bladder capacity, change relative to the pre-value” is on record as −14.0% *; the “ICI interconnection interval, change relative to the pre-value” is −9.0 * %; the “TP threshold pressure, change relative to the pre-value” is on record as “+62.0% *”.

Regarding `CCC(O)(c1cccc(O)c1)C(C)CN(C)C.Cl` (racemic) [Compound 7, (2RS,3RS)-3-(3-dimethylamino-1-ethyl-1-hydroxy-2-methyl-propyl)-phenol, hydrochloride], in test [2] (0.3 mg/kg iv), the “BC bladder capacity, change relative to the pre-value” is “+32% *”; the “ICI intercontraction interval, change relative to the pre-value” is on record as “+28% *”; the “TP threshold pressure, change relative to the pre-value” is “+95% **”.

Regarding `CC[C@](O)(c1ccc(Cl)cc1)[C@H](C)CN(C)C.Cl` (racemic) [Compound 14, (2RS,3RS)-3-(4-chlorophenyl)-1-dimethylamino-2-methyl-pentan-3-ol, hydrochloride], the minimal effective dose in test [1] (mean of at least 2 experiments) is 20 mg/kg.

With `C[C@H](CN(C)C)[C@@](C)(O)c1cccc(O)c1.Cl` [Compound 10, (+)-(1R,2R)-3-(3-dimethylamino-1-hydroxy-1,2-dimethyl-propyl)-phenol, hydrochloride], the minimal effective dose in test [1] (mean of at least 2 experiments) was determined as 0.2 mg/kg.

As for `CCC(O)(c1cccc(OC)c1)C1(CN(C)C)CCCCC1.Cl` (racemic) [Compound 13, (1RS)-1-(1-dimethylaminomethyl-cyclohexyl)-1-(3-methoxy-phenyl)-propan-1-ol, hydrochloride], the minimal effective dose in test [1] (mean of at least 2 experiments) came out at 20 mg/kg.

For the compound `COc1cccc(C(O)(CCN(C)C)C(C)(C)C)c1.Cl` (racemic) [Compound 6, (3RS)-1-dimethylamino-3-(3-methoxy-phenyl)-4,4-dimethyl-pentan-3-ol, hydrochloride], in test [1] (mean of at least 2 experiments), the “Lowest dose at which for the first time contractions were absent over a period of 10 minutes” value stood at 16.7 mg/kg.

Consider `CC[C@](OC(C)=O)(c1cccc(OC)c1)[C@H](C)CN(C)C.Cl` [Compound 12, (+)-(1R,2R)-acetic acid 3-dimethylamino-1-ethyl-1-(3-methoxy-phenyl)-2-methyl-propyl ester, hydrochloride], for which the minimal effective dose in test [1] (mean of at least 2 experiments) worked out at 30 mg/kg.

For the compound `CC[C@](O)(c1ccc(Cl)c(Cl)c1)[C@H](C)CN(C)C.Cl` (racemic) [Compound 3, (2RS,3RS)-3-(3,4-dichlorophenyl)-1-dimethylamino-2-methyl-pentan-3-ol, hydrochloride], the “Lowest dose at which for the first time contractions were absent over a period of 10 minutes” value in test [1] (mean of at least 2 experiments) came out at 23.3 mg/kg.

As for `CN(C)C[C@H]1CC[C@@H](O)C[C@]1(O)c1cccc(O)c1.Cl` (racemic) [Compound 26, (1RS,3RS,6RS)-6-dimethylaminomethyl-1-(3-hydroxy-phenyl)-cyclohexane-1,3-diol, hydrochloride], in test [2] (3.0 mg/kg iv), the “BC bladder capacity, change relative to the pre-value” is reported as “+29.0% *”; the “ICI interconnection interval, change relative to the pre-value” was “+27.0% *”; the “TP threshold pressure, change relative to the pre-value” is reported as “+86.0% ***”.

Take `CC[C@](O)(c1cccc(C(F)F)c1)[C@H](C)CN(C)C.Cl` (racemic) [Compound 4, (2RS,3RS)-3-(3-difluoromethyl-phenyl)-1-dimethylamino-2-methyl-pentan-3-ol, hydrochloride]: the minimal effective dose in test [1] (mean of at least 2 experiments) stood at 1.7 mg/kg.

Take `CN(C)C[C@H]1CCCC[C@]1(F)c1cccc(O)c1.Cl` [Compound 18, (+)-(1R,2R)-3-(2-dimethylaminomethyl-1-fluoro-cyclohexyl)-phenol, hydrochloride]: the minimal effective dose in test [1] (mean of at least 2 experiments) came out at 0.2 mg/kg.

Take `C[C@H]1CC[C@H](CN(C)C)[C@@](O)(c2cccc(O)c2)C1.Cl` [Compound 28, (+)-(1R,2R,5S)-3-(2-dimethylaminomethyl-1-hydroxy-5-methyl-cyclohexyl)-phenol, hydrochloride]: the minimal effective dose in test [1] (mean of at least 2 experiments) came to 16.7 mg/kg.

As for `CN(C)C[C@@H]1CCCC[C@H]1c1cccc(O)c1.Cl` [Compound 20, (−)-(1R,2R)-3-(2-dimethylaminomethyl-cyclohexyl)-phenol, hydrochloride], the minimal effective dose in test [1] (mean of at least 2 experiments) came out at 0.5 mg/kg.

Consider `C[C@H](CN(C)C)[C@@](C)(O)c1cccc(O)c1.Cl` (racemic) [Compound 8, (1RS,2RS)-3-(3-dimethylamino-1-hydroxy-1,2-dimethyl-propyl)-phenol, hydrochloride], for which, in test [2] (setting [5]), the “BC bladder capacity, change relative to the pre-value” is listed as “+7%”; the “ICI intercontraction interval, change relative to the pre-value” is recorded as “+14.4%”; the “TP threshold pressure, change relative to the pre-value” is given as “+60% **”.

`CCC1(c2cccc(O)c2)CCCCN(C)C1` (stereo not drawn) [meptazinol, reference compound]: the minimal effective dose in test [1] (setting [4]) was 1 mg/kg.

On to `CC[C@](O)(c1cccc(OC)c1)[C@H](C)CN(C)C.Cl` [Compound 2, (+)-(2R,3R)-1-dimethylamino-3-(3-methoxy-phenyl)-2-methyl-pentan-3-ol, hydrochloride], for which the “action on bladder regulation (in words)” value in test [2] is given as “effectively active”.

As for `COc1cccc([C@@]2(O)C[C@H](O)CC[C@@H]2CN(C)C)c1.Cl` (racemic) [Compound 24, (1RS,3RS,6RS)-6-dimethylaminomethyl-1-(3-methoxy-phenyl)-cyclohexane-1,3-diol, hydrochloride], in test [2] (setting [5]), the “BC bladder capacity, change relative to the pre-value” is −8.0%; the “ICI intercontraction interval, change relative to the pre-value” was −15% **; the “TP threshold pressure, change relative to the pre-value” is reported as “+44.0% ***”. In test [2] (3.0 mg/kg iv), the “BC bladder capacity, change relative to the pre-value” is −16.0% *; the “ICI interconnection interval, change relative to the pre-value” is −16% *; the “TP threshold pressure, change relative to the pre-value” was “+94.0% **”. Besides, in test [2] (5.0 mg/kg iv), the “BC bladder capacity, change relative to the pre-value” was −26.0% *; the “ICI interconnection interval, change relative to the pre-value” is −21.2%; the “TP threshold pressure, change relative to the pre-value” is “+69.0% *”.

For oxyhaemoglobin [OxyHb], in test [3] (OxyHb 2.5 × 10^−4 M alone), the “BC bladder capacity, change (diff) in comparison with the pre-value” is “diff: −29.3%”; the “ICI intercontraction interval, change (diff) in comparison with the pre-value” was “diff: −32.9%”; the “MP micturition pressure, change (diff.) in comparison with the pre-value” is “diff.: +64.4%”; the “TP threshold pressure, change (diff.) in comparison with the pre-value” is on record as “diff.: +12.8%”. For the same compound, in test [3] (setting [6]), the “BC bladder capacity, after (a)” value is recorded as “a: 0.65 ± 0.06 ml”; the “ICI intercontraction interval, after (a)” value is recorded as “a: 3.33 ± 0.18 min”; the “MP micturition pressure, after (a)” value is on record as “a: 97 ± 5 cm H2O”; the “TP threshold pressure, after (a)” value was “a: 9.84 ± 1.56 cm H2O”. In addition, in test [3] (setting [7]), the “BC bladder capacity, before (b)” value is “b: 0.92 ± 0.10 ml”; the “ICI intercontraction interval, before (b)” value was “b: 4.96 ± 0.33 min”; the “MP micturition pressure, before (b)” value is recorded as “b: 59 ± 8 cm H2O”; the “TP threshold pressure, before (b)” value was “b: 8.72 ± 1.31 cm H2O”.
